Test results: patent publication US20120003668A1, “HIGH RESOLUTION COMPLEX STRUCTURE AND ALLOSTERIC EFFECTS OF LOW MOLECULAR WEIGHT ACTIVATORS ON THE PROTEIN KINASE PDK1” (UNIVERSITAET DES SAARLANDES, priority 2008, published 2012)
Entries after “also recorded” stand apart in the source; their conditions may differ.

Key:
[1] = biological target: T1, His-PDK1 50-556 / biotin-PIFtide interaction (Homo sapiens, UniProt O15530); assay: alpha-screen displacement of the His-PDK1 biotin-PIFtide interaction; format: binding
T1 sequence (O15530 50-556): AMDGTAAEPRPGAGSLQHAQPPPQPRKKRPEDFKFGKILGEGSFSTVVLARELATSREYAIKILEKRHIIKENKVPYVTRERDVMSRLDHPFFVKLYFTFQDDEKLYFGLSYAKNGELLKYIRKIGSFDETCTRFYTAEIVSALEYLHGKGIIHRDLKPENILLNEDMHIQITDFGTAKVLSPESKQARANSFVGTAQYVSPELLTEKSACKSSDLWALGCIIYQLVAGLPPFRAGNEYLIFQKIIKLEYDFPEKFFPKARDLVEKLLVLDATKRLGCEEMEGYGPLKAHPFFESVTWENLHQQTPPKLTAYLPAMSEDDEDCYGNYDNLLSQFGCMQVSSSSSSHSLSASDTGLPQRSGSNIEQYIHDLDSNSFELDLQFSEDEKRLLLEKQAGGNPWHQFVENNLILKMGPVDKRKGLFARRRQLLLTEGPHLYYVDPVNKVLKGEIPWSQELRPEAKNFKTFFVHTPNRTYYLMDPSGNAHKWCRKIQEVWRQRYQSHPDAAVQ
Experimental: To study if low molecular weight compounds displaced the interaction, the compounds were incubated with the mix and the displacement of the His-PDK1 biotin-PIFtide interaction measured as a decrease in light emission.

[2] = biological target: T2, PDK1 50-359 [Y288G;Q292A] (Homo sapiens, UniProt O15530, Q292A/Y288G); assay: Amide 1H/2H exchange and mass spectrometry
T2 sequence (O15530 with tags, fused parts or gaps Y288G/Q292A): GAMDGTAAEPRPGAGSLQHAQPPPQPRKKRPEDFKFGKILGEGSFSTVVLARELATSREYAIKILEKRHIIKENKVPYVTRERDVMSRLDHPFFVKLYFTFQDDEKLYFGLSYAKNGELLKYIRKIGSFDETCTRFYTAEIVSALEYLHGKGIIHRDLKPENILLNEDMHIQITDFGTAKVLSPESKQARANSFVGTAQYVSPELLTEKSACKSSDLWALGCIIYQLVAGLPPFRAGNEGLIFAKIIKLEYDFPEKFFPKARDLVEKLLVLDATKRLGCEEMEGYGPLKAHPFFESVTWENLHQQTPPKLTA
Experimental: For local exchange analysis, the labeled proteins were digested with pepsin and the resulting polypeptides analyzed by tandem mass-spectrometry (LC-MS/MS) for their incorporation of deuterium atoms. The graphics represent the number of deuterium atoms incorporated into each polypeptide upon the stated incubation time in deuterated water. […] Over time, amide hydrogen atoms exchanged for deuteriums and the molecular weight of the protein increased. We repeated the ^1H/^2H exchange experiments at four different incubation times: 1, 5, 15 and 45 minutes. […] In the presence of peptide or small compounds, protein and ligand solution were pre-incubated on ice for 50 min before the mixture was diluted into labeling buffer. After the exchange reaction, samples were loaded on a pepsin column for one minute for digestion into peptides and samples quenched at each time point. They were then subjected to liquid chromatography for separation and analyzed by tandem mass-spectrometry (LC-MS/MS) for their incorporation of deuterium atoms. The entire plumbing system was immersed in an ice bath. 61 polypeptides were identified with overlapping regions, covering 80% of PDK1 sequence. As it is not possible to predict the cleavage sites of pepsin in the PDK1 sequence, it was necessary to identify the peptides generated by pepsin digestion for local-exchange analysis.

[3] = biological target: T3, PDK1 catalytic domain (Homo sapiens, UniProt O15530); assay: TNP-ATP fluorescence probing of the ATP binding site conformation; format: biochemical
T3 construct: The catalytic domain (CD) of PDK1 50-359 and its mutants
T3 sequence (O15530 50-359): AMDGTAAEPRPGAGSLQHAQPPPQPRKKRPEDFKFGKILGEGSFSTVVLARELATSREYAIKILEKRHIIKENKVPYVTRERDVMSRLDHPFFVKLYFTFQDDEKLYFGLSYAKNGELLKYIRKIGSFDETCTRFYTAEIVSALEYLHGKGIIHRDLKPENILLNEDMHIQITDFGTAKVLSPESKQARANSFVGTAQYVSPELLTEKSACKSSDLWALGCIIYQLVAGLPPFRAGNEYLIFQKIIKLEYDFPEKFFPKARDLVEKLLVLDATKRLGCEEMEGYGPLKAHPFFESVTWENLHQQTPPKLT
Excerpt: Probing the conformation of the ATP binding site in PDK1: The activation of PDK1 by HM-polypeptides and small compounds is due to a change in the conformation of the enzyme. We probed the conformation of the ATP binding site in PDK1 by scanning the steady-state fluorescence of TNP-ATP/PDK1, in the presence or absence of P-HM-polypeptides, PIFtide, or small molecular weight compounds. Data were obtained in a Varian Cary Eclipse spectrofluorometer (excitation λ=479 nm; emission scanning, λ=500-600 nm; excitation slit=10 nm; emission slit=10 nm) at a rate of 200 nm/min, with 150 datapoints/100 nm scanning and 0.3 s averaging time. The incubation was performed at 20° C. in a buffer containing 50 mM Tris pH 7.5, 0.1 mM EDTA, 187 mM NaCl, 40 μM TNP-ATP, 15 μM PDK1 catalytic domain, 1 mM DTT and 1% DMSO. In the absence of PDK1, TNP-ATP produced approximately 1.5 arbitrary units (a.u.) of fluorescence, and the inclusion of PDK1 increased its fluorescence intensity to approximately 3.3 a.u. […] In preliminary tests, inclusion of 2.5 mM MgCl2 in the assay mix produced similar results. Data for each condition are the average of 3 scans.

displacement of the binding of PIFtide to PDK1 [1]: could be displaced | decreased 2H incorporation, peptide 108-121 [2]: 1 ^2H | 2H less incorporated, peptide 108-134 ([2]; first time point): 4 ^2H | 2H less incorporated, peptide 218-247 ([2]; first time point): 1.5 ^2H | 2H less incorporated, peptide 108-134 ([2]; following time points): 2 ^2H | 2H less incorporated, peptide 146-155 ([2]; time points 15 and 45): 1 ^2H | maximum fluorescence intensity of TNP-ATP/PDK1 ([3]; 167 μM compound, % of maximal TNP-ATP fluorescence with 15 μM PDK1 CD): 60%
SMILES: O=C(O)/C=C(/CCc1ccc(Br)cc1F)c1ccccc1 [PS08]
effect on TNP-ATP fluorescence intensity in the presence of PDK1 ([3]; 40 μM TNP-ATP, 15 μM PDK1 catalytic domain): concentration dependent decrease; also recorded: concentration-dependent decrease
